Measured values: ChEMBL document CHEMBL1123380, “Spin trapping of superoxide and hydroxyl radicals with substituted pyrroline 1-oxides” (J Med Chem, 1986)

Tests used:
[1] = Compound was evaluated for the partition coefficient in octanol/water; format: physicochemical
[2] = Compound was evaluated for the partition coefficient in octanol/water (1-octanol / 10 mM phosphate buffer at pH 7.4); format: physicochemical

| K [1] | K [2] | Compound |
| --- | --- | --- |
| 0.8 |  | O=CCCC1([N+](=O)[O-])CCCC1 |
| 1.1 |  | CCCCC(C)(CCC=O)[N+](=O)[O-] (centres undefined) |
|  | 0.02 | CC1(C)CCC=[N+]1[O-] |
| 4.9 |  | CCCC(CCC)(CCC=O)[N+](=O)[O-] |
